Assay [1] deals with Delta-type opioid receptor (Homo sapiens, UniProt P41143). The assay can be described thus: Displacement of [125I]IOXY from human recombinant delta opioid receptor expressed in CHO cells. It is filed as cell-based.
Assay [2] addresses T1, Mu-type opioid receptor (Homo sapiens, UniProt P35372).
Description: Inverse agonist activity at mu opioid receptor by [35S]GTPgammaS binding assay
Assay [3] addresses Kappa-type opioid receptor (Homo sapiens, UniProt P41145). The assay can be described thus: Displacement of [125I]IOXY from human recombinant kappa opioid receptor expressed in CHO cells. Type of assay: cell-based. For orientation: Loss of bound radioactivity is the signal in a displacement assay; it reports binding, not function.
The target in assay [4] is T1, Mu-type opioid receptor. The assay can be described thus: Displacement of [125I]IOXY from human recombinant mu opioid receptor expressed in CHO cells. It is filed as cell-based.
Assay [5] deals with T1, Mu-type opioid receptor. Briefly: Binding affinity to mu opioid receptor.

Each structure is given as a SMILES string.

By Ki is commonly meant the equilibrium dissociation constant of an inhibitor or competing ligand from its target.

T1 sequence (P35372 whole entry): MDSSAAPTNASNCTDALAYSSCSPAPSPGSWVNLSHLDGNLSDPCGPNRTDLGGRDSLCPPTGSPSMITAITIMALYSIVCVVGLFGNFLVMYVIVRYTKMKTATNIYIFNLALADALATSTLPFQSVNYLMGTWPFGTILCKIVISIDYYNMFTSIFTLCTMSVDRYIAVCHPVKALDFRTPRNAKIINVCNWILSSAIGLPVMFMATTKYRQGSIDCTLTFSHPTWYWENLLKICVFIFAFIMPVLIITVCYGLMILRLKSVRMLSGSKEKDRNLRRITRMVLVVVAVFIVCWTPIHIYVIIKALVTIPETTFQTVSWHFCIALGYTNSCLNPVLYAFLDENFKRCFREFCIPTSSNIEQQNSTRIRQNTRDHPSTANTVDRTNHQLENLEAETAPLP
Delta-type opioid receptor, sequence (P41143 whole entry): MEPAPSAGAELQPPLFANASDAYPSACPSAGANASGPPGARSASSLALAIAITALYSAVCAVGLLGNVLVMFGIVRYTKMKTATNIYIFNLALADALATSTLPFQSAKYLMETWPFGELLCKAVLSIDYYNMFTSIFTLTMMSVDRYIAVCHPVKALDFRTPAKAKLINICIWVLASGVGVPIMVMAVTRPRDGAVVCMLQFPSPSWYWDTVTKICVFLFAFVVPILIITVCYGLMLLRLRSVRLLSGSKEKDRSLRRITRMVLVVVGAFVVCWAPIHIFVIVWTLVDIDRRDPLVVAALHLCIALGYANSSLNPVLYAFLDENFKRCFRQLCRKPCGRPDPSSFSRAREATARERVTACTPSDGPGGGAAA
Kappa-type opioid receptor, sequence (P41145 whole entry): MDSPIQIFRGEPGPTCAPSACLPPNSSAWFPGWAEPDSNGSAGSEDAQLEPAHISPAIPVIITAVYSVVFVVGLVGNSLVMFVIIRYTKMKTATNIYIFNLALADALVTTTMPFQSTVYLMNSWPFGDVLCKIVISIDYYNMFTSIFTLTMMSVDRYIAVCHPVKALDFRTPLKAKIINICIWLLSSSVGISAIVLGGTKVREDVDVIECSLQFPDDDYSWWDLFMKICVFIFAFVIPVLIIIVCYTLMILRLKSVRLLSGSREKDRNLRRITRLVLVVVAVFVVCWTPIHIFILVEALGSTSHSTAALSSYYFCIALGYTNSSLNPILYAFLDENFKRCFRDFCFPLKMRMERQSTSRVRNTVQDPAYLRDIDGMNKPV

Regarding `Oc1cccc([C@@]23CCC[C@@H](C2)N(C/C=C\c2ccccc2)CC3)c1` (single isomer, unassigned), the Ki in assay [1] turned out to be 359 nM; in assay [3] it was 367 nM; at Mu-type opioid receptor [4] it was 14 nM. The compound further yielded a Ke at Mu-type opioid receptor [2] of 7.7 nM.
Regarding `Oc1cccc(C23CCCC(C2)N(C/C=C/c2ccccc2)CC3)c1` (single isomer, unassigned; (-)) [listing 1 of 2 here], the Ki came to 152 nM in assay [1], 225 nM in assay [3] and 6 nM at Mu-type opioid receptor [4].
`Oc1cccc(C23CCCC(C2)N(C/C=C/c2ccccc2)CC3)c1` (single isomer, unassigned; (+)) [listing 1 of 2 here]: the Ki in assay [1] is 138 nM; in assay [3], 125 nM; on Mu-type opioid receptor [4], 2 nM.
The compound `C[C@H]1CN(CC2CC2c2ccccc2)CC[C@@]1(C)c1cccc(O)c1` (some centres undefined) returned a Ki on Mu-type opioid receptor [5] of 1.75 nM.
On Mu-type opioid receptor [2], `Oc1cccc(C23CCCC(C2)N(C/C=C/c2ccccc2)CC3)c1` (single isomer, unassigned; (-)) [listing 2 of 2 here] gave a Ke of 6.6 nM.
Take `Oc1cccc([C@]23CCC[C@H](C2)N(C[C@H]2C[C@@H]2c2ccccc2)CC3)c1`: the Ki stood at 183 nM in assay [1], 323 nM in assay [3] and 16 nM on Mu-type opioid receptor [4]. This compound also had a Ke on Mu-type opioid receptor [2] of 2.2 nM.
Regarding `Oc1cccc([C@]23CCC[C@H](C2)N(C/C=C\c2ccccc2)CC3)c1` (single isomer, unassigned), the values for the Ki (in assay [1]; in assay [3]; on Mu-type opioid receptor [4]) were 454 nM, 123 nM and 26 nM, respectively. For the same compound, the Ke on Mu-type opioid receptor [2] came out at 3.1 nM.
For the compound `Oc1cccc([C@]23CCC[C@H](C2)N(C[C@@H]2C[C@@H]2c2ccccc2)CC3)c1`, the Ki in assay [1] worked out at 610 nM; in assay [3], 153 nM; on Mu-type opioid receptor [4] it was 265 nM. Further, the Ke at Mu-type opioid receptor [2] was 8.6 nM.
On the same counts, the results for `Oc1cccc([C@]23CCC[C@H](C2)N(C[C@@H]2C[C@H]2c2ccccc2)CC3)c1` are 800 nM, 390 nM, 47 nM and 9.4 nM.
In the same order, the values of `Oc1cccc([C@@]23CCC[C@@H](C2)N(C[C@H]2C[C@@H]2c2ccccc2)CC3)c1` are 165 nM, 72 nM, 3 nM and 0.17 nM.
On the same counts, the results for `Oc1cccc([C@@]23CCC[C@@H](C2)N(C[C@@H]2C[C@@H]2c2ccccc2)CC3)c1` are 196 nM, 322 nM, 11 nM and 8.2 nM.
Take `Oc1cccc(C23CCCC(C2)N(C/C=C/c2ccccc2)CC3)c1` (single isomer, unassigned; (+)) [listing 2 of 2 here]: the Ke on Mu-type opioid receptor [2] was found to be 0.58 nM.
On to `Oc1cccc([C@@]23CCC[C@@H](C2)N(C[C@H]2C[C@H]2c2ccccc2)CC3)c1`, for which the values for the Ki (in assay [1]; in assay [3]; on Mu-type opioid receptor [4]) were 1980 nM, 475 nM and 459 nM, respectively. In addition, at Mu-type opioid receptor [2], the Ke turned out to be 33 nM.
On the same counts, the results for `Oc1cccc([C@]23CCC[C@H](C2)N(C[C@H]2C[C@H]2c2ccccc2)CC3)c1` are 547 nM, 174 nM, 76 nM and 18 nM.
Consider `Oc1cccc([C@@]23CCC[C@@H](C2)N(C[C@@H]2C[C@H]2c2ccccc2)CC3)c1`, for which the results for the Ki (in assay [1]; in assay [3]; on Mu-type opioid receptor [4]) were 200 nM, 210 nM and 4 nM, respectively. This compound also yielded a Ke on Mu-type opioid receptor [2] of 0.31 nM.

The values are drawn from ChEMBL document CHEMBL1671786, “Probes for narcotic receptor mediated phenomena. 41. Unusual inverse μ-agonists and potent μ-opioid antagonists by modification of the N-substituent in enantiomeric 5-(3-hydroxyphenyl)morphans” (J Med Chem, 2011).
